One may read the clearance as a measure of how efficiently the substance is removed, as volume per time. A word on the half-life: it is how long it takes for the measured level to halve. Usually AUC(0-t) stands for the area under the concentration-time curve up to a stated or last time point. What is called Cmax is the maximum level reached in the sampled fluid or tissue. As a reminder, the Papp A→B is how fast a substance crosses the layer from the apical side. Broadly, the bioavailability is dose-corrected exposure relative to a reference, in per cent. In general, Papp B→A refers to the apparent permeability from the basolateral to the apical side of a cell layer. What is called solubility is how much of the substance goes into solution per volume. As a reminder, the AUC is concentration integrated over time.

This note sets out measurements from ChEMBL document CHEMBL4673322, “Discovery and optimization of a potent and selective indazolamine series of IRAK4 inhibitors” (Bioorg Med Chem Lett, 2021).

One data set is described as follows: in vivo. Particulars: Sprague-Dawley, rat, iv, 1 mg/kg.
Data set [1] in a line: Half life in Sprague-Dawley rat at 10 mg/kg, po. It counts as ADME, organism-based. The note with it: in vivo.
A short description of data set [2]: AUC (0 to 24 hrs) in Sprague-Dawley rat at 10 mg/kg, po. In kind it is ADME, organism-based. Also on record: time < 24 hr, route oral, dose 10 mg/kg. The note with it: in vivo.
Data set [3] is described as follows: Cmax in Sprague-Dawley rat at 10 mg/kg, po. It counts as ADME, organism-based. On the set-up: route oral, dose 10 mg/kg. The note with it: in vivo.
Data set [4] in a line: Volume of distribution at steady state in dog at 0.5 mg/kg, iv. The note with it: in vivo, read-out: Vdss. In kind it is ADME, organism-based, Canis lupus familiaris.
Data set [5] in a line: Half life in dog at 0.5 mg/kg, iv. In kind it is ADME, organism-based, Canis lupus familiaris. The note with it: in vivo.
Data set [6] in a line: Half life in monkey at 0.5 mg/kg, iv. In kind it is ADME, organism-based, Macaca mulatta. The note with it: rhesus monkey, in vivo.
A short description of data set [7]: AUC (0 to 24 hrs) in monkey at 2 mg/kg, po. In kind it is ADME, organism-based, Macaca mulatta. On the set-up: time < 24 hr, route oral, dose 2 mg/kg. The note with it: rhesus monkey, in vivo.
Data set [8] in a line: AUC (0 to 24 hrs) in dog at 0.5 mg/kg, iv. On the set-up: time < 24 hr, route intravenous, dose 0.5 mg/kg. In kind it is ADME, organism-based, Canis lupus familiaris. The note with it: in vivo.
Data set [9] is described as follows: Clearance in monkey at 0.5 mg/kg, iv. The note with it: rhesus monkey, in vivo. In kind it is ADME, organism-based, Macaca mulatta.
Data set [10] can be described thus: Clearance in dog at 0.5 mg/kg, iv. In kind it is ADME, organism-based, Canis lupus familiaris. The note with it: in vivo.
Data set [11] is described as follows: Apparent permeability across apical to basolateral side. The note with it: not told. In kind it is ADME.
Data set [12] can be described thus: Metabolic stability in mouse liver microsomes assessed as intrinsic clearance. The note with it: read-out: CLH. In kind it is ADME, Microsome. In general terms: Microsomes from liver hold many membrane-bound enzymes, among them those of drug oxidation.
Data set [13] is described as follows: Half life in monkey at 2 mg/kg, po. It counts as ADME, organism-based, Macaca mulatta. The note with it: rhesus monkey, in vivo.
Data set [14] in a line: Oral bioavailability in monkey at 2 mg/kg. Particulars: rhesus monkey, in vivo. It counts as ADME, organism-based, Macaca mulatta.
Data set [15] in a line: AUC (0 to 24 hrs) in monkey at 0.5 mg/kg, iv. The note with it: rhesus monkey, in vivo. Also on record: time < 24 hr, route intravenous, dose 0.5 mg/kg. It counts as ADME, organism-based, Macaca mulatta.
Data set [16] can be described thus: Metabolic stability in monkey liver microsomes assessed as intrinsic clearance. In kind it is ADME, Macaca mulatta, Microsome. The note with it: rhesus monkey, read-out: CLH.
Data set [17] in a line: Oral bioavailability in dog at 2 mg/kg. In kind it is ADME, organism-based, Canis lupus familiaris. The note with it: in vivo.
Data set [18] in a line: AUC (0 to 24 hrs) in dog at 2 mg/kg, po. Also on record: time < 24 hr, route oral, dose 2 mg/kg. The note with it: in vivo. It counts as ADME, organism-based, Canis lupus familiaris.
The nature of data set [19]: Volume of distribution at steady state in monkey at 0.5 mg/kg, iv. Particulars: rhesus monkey, in vivo, read-out: Vdss. In kind it is ADME, organism-based, Macaca mulatta.
Data set [20] can be described thus: AUC(0 to 24 hrs) in mouse at 1 mg/kg, iv. Also on record: time < 24 hr, route intravenous, dose 1 mg/kg. It counts as ADME, organism-based. The note with it: in vivo.
Data set [21] can be described thus: Half life in mouse at 1 mg/kg, iv. In kind it is ADME, organism-based. The note with it: in vivo.
A short description of data set [22]: Metabolic stability in human liver microsomes assessed as intrinsic clearance. In kind it is ADME, Microsome. Particulars: read-out: CLH.
A short description of data set [23]: Half life in dog at 2 mg/kg, po. In kind it is ADME, organism-based, Canis lupus familiaris. The note with it: in vivo.
Data set [24] can be described thus: Clearance in mouse at 1 mg/kg, iv. It counts as ADME, organism-based. Particulars: in vivo.
Data set [25] in a line: Apparent permeability across basolateral to apical side. It counts as ADME. Particulars: not told.
Data set [26] is described as follows: Metabolic stability in rat liver microsomes assessed as intrinsic clearance. It counts as ADME, Microsome. Particulars: read-out: CLH.
Data set [27] in a line: AUC(0 to 24 hrs) in mouse at 2 mg/kg, po. It counts as ADME, organism-based. On the set-up: time < 24 hr, route oral, dose 2 mg/kg. Particulars: in vivo.
Data set [28] is described as follows: Metabolic stability in dog liver microsomes assessed as intrinsic clearance. In kind it is ADME, Canis lupus familiaris, Microsome. The note with it: read-out: CLH.
The nature of data set [29]: Metabolic stability in human Hepatocyte assessed as half life. Particulars: hepatocytes. In kind it is ADME, tissue-based.
A short description of data set [30]: Protein binding in human plasma. It counts as ADME, cell-free. The note with it: read-out: PPB (converted).
Data set [31] is described as follows: Volume of distribution at steady state in mouse at 1 mg/kg, iv. The note with it: in vivo, read-out: Vdss. It counts as ADME, organism-based.
The nature of another data set: physchem. Particulars: FaSSIF, pH 6.5.
Data set [32] is described as follows: Oral bioavailability in mouse at 2 mg/kg. In kind it is ADME, organism-based. Particulars: in vivo.
Data set [33] can be described thus: Cmax in Sprague-Dawley rat at 5 mg/kg, po. It counts as ADME, organism-based. On the set-up: route oral, dose 5 mg/kg. The note with it: in vivo.
Data set [34] in a line: Oral bioavailability in Sprague-Dawley rat at 5 mg/kg. It counts as ADME, organism-based. The note with it: in vivo.
Data set [35] is described as follows: AUC in Sprague-Dawley rat at 5 mg/kg, po. In kind it is ADME, organism-based. Also on record: dose 5 mg/kg. The note with it: in vivo.
The nature of data set [36]: Half life in Sprague-Dawley rat at 5 mg/kg, po. In kind it is ADME, organism-based. Particulars: in vivo.

≈ marks a conversion by molar mass, not a printed value.

Description for in vivo: Clearance in Sprague-Dawley rat at 1 mg/kg, iv
Description for physchem: Solubility in FassIF at pH 6.5

`COc1cc(NC(=O)c2cccc(C(F)(F)F)n2)cc2cn(CCC(C)(C)O)nc12` gave a clearance in “in vivo” of 5.5 mL/min/kg. The same molecule had a half-life in data set [1] of 210 min. Besides, in data set [2], the AUC(0-t) at 24 h was 34500 ng·h/mL. In [3], this molecule returned a Cmax of 3320 ng/mL.
On to `CN(C)CCn1cc2cc(NC(=O)c3cccc(C(F)(F)F)n3)c(C(C)(C)O)cc2n1`, for which the Vd in data set [4] was found to be 2.63 L/kg; in [19], 0.67 L/kg; in data set [31] it was 2.43 L/kg. The half-life in [5] is 43.2 min; in data set [6], 118 min; in data set [13], 210 min; in data set [1], 198 min; in [21], 97.2 min; in [23], 384 min. For the same molecule, in data set [29], the half-life is 583 min. For the same molecule, the clearance amounted to 8.3 mL/min/kg in the data set “in vivo”, 4.86 mL/min/kg in [9], 55.6 mL/min/kg in data set [10] and 17.1 mL/min/kg in data set [24]. Besides, the AUC(0-t) at 24 h in data set [7] was found to be 3670 ng·h/mL; in data set [8], 148 ng·h/mL; in data set [15], 1870 ng·h/mL; in data set [18], 85.3 ng·h/mL; in data set [20], 966 ng·h/mL; in data set [2], 11900 ng·h/mL. The molecule further came in with an AUC(0-t) at 24 h in data set [27] of 1300 ng·h/mL. In addition, the Papp A→B in [11] worked out at 27.3 ×10⁻⁶ cm/s. Further, the CLint scaled in data set [12] was 8.82 mL/min/kg; in [16] it was 1.96 mL/min/kg; in data set [22], 5.25 mL/min/kg; in data set [26] it was 15 mL/min/kg; in [28], 116 mL/min/kg. Besides, the results for the bioavailability in data set [14], in [17] and in data set [32] were 49%, 14.4% and 67.3%, respectively. The Papp B→A in [25] came to 22.7 ×10⁻⁶ cm/s. The molecule further returned a Cmax in data set [3] of 2110 ng/mL. In data set [30], the fraction unbound is 0.014. The molecule further yielded a solubility in “physchem” of 92.3 µM (≈ 40.2 µg/mL).
For `CC(C)(O)CCn1cc2cc(NC(=O)c3cccc(C(F)(F)F)n3)c(C(C)(C)O)cc2n1`, the CLint scaled came out at 3.91 mL/min/kg in data set [12], 1.28 mL/min/kg in [22] and 3.11 mL/min/kg in data set [26]. Moreover, the Cmax in [33] amounted to 2310 ng/mL. The bioavailability in [34] is 84%. The AUC in data set [35] was 18400 ng·h/mL. The molecule further showed a half-life in data set [36] of 216 min.
